Source: ChEMBL document CHEMBL1145540, “Zidovudine inhibits thymidine phosphorylation in the isolated perfused rat heart” (Antimicrob Agents Chemother, 2007)

System: Heart
Assay: Inhibition of [3H]thymidine phosphorylation in isolated perfused Sprague-Dawley rat heart after 30 mins
Assay type: functional, tissue-based

IC50: 24.4 µM
Structure (SMILES): Cc1cn([C@H]2C[C@H](N=[N+]=[N-])[C@@H](CO)O2)c(=O)[nH]c1=O [ZIDOVUDINE]
